Test results as given in ChEMBL document CHEMBL2380302, “Synthesis of 3-O-propargylated betulinic acid and its 1,2,3-triazoles as potential apoptotic agents” (Eur J Med Chem, 2013).

Tests used:
HL-60 [1] = experiment: Cytotoxicity against human HL60 cells at 10 uM after 48 hrs by SRB assay; format: functional; conditions: HL-60, 48 h, read-out: GI
THP-1 [2] = experiment: Cytotoxicity against human THP1 cells at 50 uM after 48 hrs by SRB assay; format: functional; conditions: THP-1, 48 h, read-out: GI
DU-145 [3] = experiment: Cytotoxicity against human DU145 cells at 30 uM after 48 hrs by SRB assay; format: functional; conditions: DU-145, 48 h, read-out: GI
SF-295 [4] = experiment: Cytotoxicity against human SF295 cells after 48 hrs by SRB assay; format: functional, cell-based; conditions: SF-295, 48 h
HL-60 [5] = experiment: Cytotoxicity against human HL60 cells at 30 uM after 48 hrs by SRB assay; format: functional; conditions: HL-60, 48 h, read-out: GI
HEp-2 [6] = experiment: Cytotoxicity against human Hep2 cells after 48 hrs by SRB assay; format: functional, cell-based; conditions: HEp-2, 48 h
DU-145 [7] = experiment: Cytotoxicity against human DU145 cells at 10 uM after 48 hrs by SRB assay; format: functional; conditions: DU-145, 48 h, read-out: GI
PC-3 [8] = experiment: Cytotoxicity against human PC3 cells after 48 hrs by SRB assay; format: functional, cell-based; conditions: PC-3, 48 h
THP-1 [9] = experiment: Cytotoxicity against human THP1 cells at 30 uM after 48 hrs by SRB assay; format: functional; conditions: THP-1, 48 h, read-out: GI
THP-1 [10] = experiment: Cytotoxicity against human THP1 cells at 10 uM after 48 hrs by SRB assay; format: functional; conditions: THP-1, 48 h, read-out: GI
MCF7 [11] = experiment: Cytotoxicity against human MCF7 cells after 48 hrs by SRB assay; format: functional, cell-based; conditions: MCF7, 48 h
A549 [12] = experiment: Cytotoxicity against human A549 cells at 10 uM after 48 hrs by SRB assay; format: functional; conditions: A549, 48 h, read-out: GI
HCT-15 [13] = experiment: Cytotoxicity against human HCT15 cells at 10 uM after 48 hrs by SRB assay; format: functional; conditions: HCT-15, 48 h, read-out: GI
HEp-2 [14] = experiment: Cytotoxicity against human Hep2 cells at 10 uM after 48 hrs by SRB assay; format: functional; conditions: HEp-2, 48 h, read-out: GI
DU-145 [15] = experiment: Cytotoxicity against human DU145 cells at 50 uM after 48 hrs by SRB assay; format: functional; conditions: DU-145, 48 h, read-out: GI
HEp-2 [16] = experiment: Cytotoxicity against human Hep2 cells at 30 uM after 48 hrs by SRB assay; format: functional; conditions: HEp-2, 48 h, read-out: GI
HCT-15 [17] = experiment: Cytotoxicity against human HCT15 cells at 50 uM after 48 hrs by SRB assay; format: functional; conditions: HCT-15, 48 h, read-out: GI
A549 [18] = experiment: Cytotoxicity against human A549 cells at 30 uM after 48 hrs by SRB assay; format: functional; conditions: A549, 48 h, read-out: GI
MCF7 [19] = experiment: Cytotoxicity against human MCF7 cells at 50 uM after 48 hrs by SRB assay; format: functional; conditions: MCF7, 48 h, read-out: GI
HL-60 [20] = experiment: Cytotoxicity against human HL60 cells after 48 hrs by SRB assay; format: functional, cell-based; conditions: HL-60, 48 h
PC-3 [21] = experiment: Cytotoxicity against human PC3 cells at 50 uM after 48 hrs by SRB assay; format: functional; conditions: PC-3, 48 h, read-out: GI
PC-3 [22] = experiment: Cytotoxicity against human PC3 cells at 30 uM after 48 hrs by SRB assay; format: functional; conditions: PC-3, 48 h, read-out: GI
HEp-2 [23] = experiment: Cytotoxicity against human Hep2 cells at 50 uM after 48 hrs by SRB assay; format: functional; conditions: HEp-2, 48 h, read-out: GI
A549 [24] = experiment: Cytotoxicity against human A549 cells at 50 uM after 48 hrs by SRB assay; format: functional; conditions: A549, 48 h, read-out: GI
HL-60 [25] = experiment: Cytotoxicity against human HL60 cells at 50 uM after 48 hrs by SRB assay; format: functional; conditions: HL-60, 48 h, read-out: GI
HCT-15 [26] = experiment: Cytotoxicity against human HCT15 cells after 48 hrs by SRB assay; format: functional, cell-based; conditions: HCT-15, 48 h
PC-3 [27] = experiment: Cytotoxicity against human PC3 cells at 10 uM after 48 hrs by SRB assay; format: functional; conditions: PC-3, 48 h, read-out: GI
SF-295 [28] = experiment: Cytotoxicity against human SF295 cells at 10 uM after 48 hrs by SRB assay; format: functional; conditions: SF-295, 48 h, read-out: GI
SF-295 [29] = experiment: Cytotoxicity against human SF295 cells at 30 uM after 48 hrs by SRB assay; format: functional; conditions: SF-295, 48 h, read-out: GI
MCF7 [30] = experiment: Cytotoxicity against human MCF7 cells at 10 uM after 48 hrs by SRB assay; format: functional; conditions: MCF7, 48 h, read-out: GI
DU-145 [31] = experiment: Cytotoxicity against human DU145 cells after 48 hrs by SRB assay; format: functional, cell-based; conditions: DU-145, 48 h
MCF7 [32] = experiment: Cytotoxicity against human MCF7 cells at 30 uM after 48 hrs by SRB assay; format: functional; conditions: MCF7, 48 h, read-out: GI
A549 [33] = experiment: Cytotoxicity against human A549 cells after 48 hrs by SRB assay; format: functional, cell-based; conditions: A549, 48 h
HCT-15 [34] = experiment: Cytotoxicity against human HCT15 cells at 30 uM after 48 hrs by SRB assay; format: functional; conditions: HCT-15, 48 h, read-out: GI
THP-1 [35] = experiment: Cytotoxicity against human THP1 cells after 48 hrs by SRB assay; format: functional, cell-based; conditions: THP-1, 48 h
SF-295 [36] = experiment: Cytotoxicity against human SF295 cells at 50 uM after 48 hrs by SRB assay; format: functional; conditions: SF-295, 48 h, read-out: GI

Row | Compound | inhibition of growth at 10 µM (HL-60 [1]) | inhibition of growth at 50 µM (THP-1 [2]) | inhibition of growth at 30 µM (DU-145 [3]) | IC50 (SF-295 [4]) | inhibition of growth at 30 µM (HL-60 [5]) | IC50 (HEp-2 [6]) | inhibition of growth at 10 µM (DU-145 [7]) | IC50 (PC-3 [8]) | inhibition of growth at 30 µM (THP-1 [9]) | inhibition of growth at 10 µM (THP-1 [10]) | IC50 (MCF7 [11]) | inhibition of growth at 10 µM (A549 [12]) | inhibition of growth at 10 µM (HCT-15 [13]) | inhibition of growth at 10 µM (HEp-2 [14]) | inhibition of growth at 50 µM (DU-145 [15]) | inhibition of growth at 30 µM (HEp-2 [16]) | inhibition of growth at 50 µM (HCT-15 [17]) | inhibition of growth at 30 µM (A549 [18]) | inhibition of growth at 50 µM (MCF7 [19]) | IC50 (HL-60 [20]) | other results
1 | C=C(C)[C@@H]1CC[C@]2(C(=O)O)CC[C@]3(C)[C@H](CC[C@@H]4[C@@]5(C)CC[C@H](OCc6cn(-c7ccc8c(c7)OCO8)nn6)C(C)(C)[C@@H]5CC[C@]43C)[C@@H]12 | 41% | 52% | 50% | 18 µM | 50% | 26 µM | 10% | 43 µM | 46% | 33% | 13 µM | 22% | 22% | 9% | 91% | 56% | 50% | 40% | 82% | 30 µM | inhibition of growth at 50 µM (PC-3 [21]): 61%; inhibition of growth at 30 µM (PC-3 [22]): 32%; inhibition of growth at 50 µM (HEp-2 [23]): 67%; inhibition of growth at 50 µM (A549 [24]): 40%; inhibition of growth at 50 µM (HL-60 [25]): 61%; IC50 (HCT-15 [26]): 50 µM; inhibition of growth at 10 µM (PC-3 [27]): 2%; inhibition of growth at 10 µM (SF-295 [28]): 36%; inhibition of growth at 30 µM (SF-295 [29]): 55%; inhibition of growth at 10 µM (MCF7 [30]): 47%; IC50 (DU-145 [31]): 30 µM; inhibition of growth at 30 µM (MCF7 [32]): 68%; IC50 (A549 [33]): > 50 µM; inhibition of growth at 30 µM (HCT-15 [34]): 36%; IC50 (THP-1 [35]): 34 µM; inhibition of growth at 50 µM (SF-295 [36]): 65%
2 | C=C(C)[C@@H]1CC[C@]2(C(=O)O)CC[C@]3(C)[C@H](CC[C@@H]4[C@@]5(C)CC[C@H](OCc6cn(-c7ccc([N+](=O)[O-])cc7)nn6)C(C)(C)[C@@H]5CC[C@]43C)[C@@H]12 | 63% | 93% | 54% | 8 µM | 78% | 15 µM | 43% | 13 µM | 68% | 51% | 38 µM | 28% | 36% | 43% | 72% | 54% | 65% | 49% | 53% | 4.5 µM | inhibition of growth at 50 µM (PC-3 [21]): 74%; inhibition of growth at 30 µM (PC-3 [22]): 59%; inhibition of growth at 50 µM (HEp-2 [23]): 72%; inhibition of growth at 50 µM (A549 [24]): 62%; inhibition of growth at 50 µM (HL-60 [25]): 94%; IC50 (HCT-15 [26]): 28 µM; inhibition of growth at 10 µM (PC-3 [27]): 48%; inhibition of growth at 10 µM (SF-295 [28]): 52%; inhibition of growth at 30 µM (SF-295 [29]): 72%; inhibition of growth at 10 µM (MCF7 [30]): 20%; IC50 (DU-145 [31]): 24 µM; inhibition of growth at 30 µM (MCF7 [32]): 44%; IC50 (A549 [33]): 15 µM; inhibition of growth at 30 µM (HCT-15 [34]): 52%; IC50 (THP-1 [35]): 9 µM; inhibition of growth at 50 µM (SF-295 [36]): 87%
3 | C=C(C)[C@@H]1CC[C@]2(C(=O)O)CC[C@]3(C)[C@H](CC[C@@H]4[C@@]5(C)CC[C@H](OCc6cn(-c7cc(C)cc(O)c7)nn6)C(C)(C)[C@@H]5CC[C@]43C)[C@@H]12 | 24% | 99% | 51% | 19 µM | 90% | > 50 µM | 10% | 13 µM | 85% | 15% | 3.8 µM | 23% | 28% | 9% | 97% | 25% | 66% | 59% | 96% | 14 µM | inhibition of growth at 50 µM (PC-3 [21]): 91%; inhibition of growth at 30 µM (PC-3 [22]): 74%; inhibition of growth at 50 µM (HEp-2 [23]): 42%; inhibition of growth at 50 µM (A549 [24]): 71%; inhibition of growth at 50 µM (HL-60 [25]): 98%; IC50 (HCT-15 [26]): 26 µM; inhibition of growth at 10 µM (PC-3 [27]): 47%; inhibition of growth at 10 µM (SF-295 [28]): 23%; inhibition of growth at 30 µM (SF-295 [29]): 75%; inhibition of growth at 10 µM (MCF7 [30]): 70%; IC50 (DU-145 [31]): 28 µM; inhibition of growth at 30 µM (MCF7 [32]): 96%; IC50 (A549 [33]): 26 µM; inhibition of growth at 30 µM (HCT-15 [34]): 56%; IC50 (THP-1 [35]): 18 µM; inhibition of growth at 50 µM (SF-295 [36]): 90%
4 | C=C(C)[C@@H]1CC[C@]2(C(=O)O)CC[C@]3(C)[C@H](CC[C@@H]4[C@@]5(C)CC[C@H](OCc6cn(-c7ccc(C#N)cc7)nn6)C(C)(C)[C@@H]5CC[C@]43C)[C@@H]12 | 15% | 47% | 15% | 48 µM | 40% | 32 µM | 1% | > 50 µM | 44% | 21% | 49 µM | 22% | 14% | 1% | 20% | 49% | 39% | 28% | 51% | 32 µM | inhibition of growth at 50 µM (PC-3 [21]): 42%; inhibition of growth at 30 µM (PC-3 [22]): 5%; inhibition of growth at 50 µM (HEp-2 [23]): 60%; inhibition of growth at 50 µM (A549 [24]): 36%; inhibition of growth at 50 µM (HL-60 [25]): 48%; IC50 (HCT-15 [26]): > 50 µM; inhibition of growth at 10 µM (PC-3 [27]): 3%; inhibition of growth at 10 µM (SF-295 [28]): 5%; inhibition of growth at 30 µM (SF-295 [29]): 18%; inhibition of growth at 10 µM (MCF7 [30]): 5%; IC50 (DU-145 [31]): > 50 µM; inhibition of growth at 30 µM (MCF7 [32]): 32%; IC50 (A549 [33]): > 50 µM; inhibition of growth at 30 µM (HCT-15 [34]): 80%; IC50 (THP-1 [35]): > 50 µM; inhibition of growth at 50 µM (SF-295 [36]): 54%
